This is an account of results in patent US4649215A, “Aliphatic thioethers” (Ciba-Geigy Corporation, priority 1984, dated 1987).

Counter-ions that a name gives are not always drawn.

One test deals with leucotrienes. Put plainly: leucotriene-antagonistic activity (test not specified). The following applies: reverse absolute configuration at C-5 and C-6 compared with natural leucotrienes. The text has this:
Thus, in various test arrangements in vitro they have a clear leucotriene-antagonistic action.
As already mentioned above, there is a general analogy between the structure of the compounds of the formula I according to the invention and that of leucotrienes, especially in the obligatory trans-configuration of the vicinal S- and O-atoms mentioned at the beginning and the total structure of the mercaptoalkanoic acid residue (A) (especially in its typical form of a cysteine peptide). They differ from leucotrienes essentially in lacking the characteristic terminal carboxy group in the olefinic radical (B).

In test [1] the target is phospholipase A2 from human leucocytes. Put plainly: inhibition of phospholipase A2 obtained from human leucocytes. In kind it is biochemical. The following applies: human leucocyte enzyme, 37° 1 hour, pH 7, 14C-oleic acid labelled E. coli phospholipides.
Protocol: Human neutrophilic polymorphonuclear leucocytes are isolated from "buffy coats" by multistage fractional sedimentation and deep-frozen. Phospholipase A2 is extracted from the cell suspension by homogenisation with the addition of icecold 0.36N H2 SO4 in 2N NaCl, and the supernatant obtained after centrifugation at 10,000× g is dialysed against sodium acetate buffer pH 4.5.
In order to determine the enzyme activity, enzyme (10-30 μg protein) is incubated at 37° for 1 hour in 0.1M tris/HCl buffer pH 7 with the addition of 1 mM CaCl2 and substrate consisting of phospholipides (2 μm) of Escherichia coli that have been radioactively labelled with ^14 C-oleic acid by means of biosynthesis. The reaction is stopped by the addition of Dole reagent (isopropanol/heptane/1N H2 SO4 40:10:1, v/v) and the ^14 C-oleic acid selectively released by phospholipase A2 is extracted. Substrate also extracted at the same time is completely removed by filtering the extract through a column of silica gel. The ^14 C-oleic acid in the eluate is determined by radiometry.
In order to ascertain the inhibitory action of test substances on phospholipase A2, these substances are added in the form of solutions in water, dimethyl sulphoxide (final concentration in the mixture up to 5% v/v) or ethanol (final concentration in the mixture up to 2.5% v/v) to the incubation mixture. […]
Test [2] deals with phospholipase C from human thrombocytes. Description: inhibition of phospholipase C obtained from human thrombocytes. The following applies: human thrombocyte enzyme, 37° 5 minutes, pH 6, phosphatidyl-[14C]-inositol. In kind it is biochemical.
Protocol: To ascertain the enzyme activity, enzyme (20-100 μg protein) is incubated at 37° for 5 minutes in 0.025M tris/malate buffer pH 6 with the addition of 0.2 mM CaCl2 and 0.02 mM radioactively labelled substrate, phosphatidyl-[^14 C]-inositol. The reaction is stopped by extraction by shaking with CHCl3 /CH3 OH 2:1 (v/v). In the course of this unconsumed substrate is extracted into the organic phase, whilst the reaction product, ^14 C-inositol phosphate, remains in the aqueous phase and can be measured by radiometry of an aliquot.
In order to ascertain the inhibitory action of test substances on phospholipase C, these substances are added in the form of solutions in water, dimethyl sulphoxide (final concentration in the mixture up to 5%, v/v) or ethanol (final concentration in the mixture up to 2.5%, v/v) to the incubation mixture. The strength of action of the test substances is expressed by the IC50, that is to say the concentration that causes a 50% inhibition of the control activity. The IC50 is ascertained on a graph by plotting the percentage inhibition on the ordinate against the log of the concentration (μM) on the abscissa.

With `CCCCCCCC\C=C/C=C/C=C/[C@H](SCC(NC(=O)C(F)(F)F)C(=O)NCC(=O)O)[C@H](O)CCCC` (stereo partly drawn) [Example 60A, Sodium salt of N-[S-5(R),6(S)-5-hydroxy-7,9-trans-11-cis-icosatrien-6-yl-N-trifluoroacetylcysteinyl]-glycine], the “activity (leucotriene antagonism), in words” value in the test with leucotrienes is reported as “highly active”.
In general, IC50 refers to the concentration that gives 50% inhibition. Read a low IC50 as inhibition by little substance. On to `CCN(CC)CCCC(C)Nc1c2ccc(Cl)cc2nc2ccc(OC)cc12` (stereo not drawn) [mepacrine], for which the IC50 in test [1] amounted to 1600 µM; in test [2], 20 µM.
